PMC2714839, “Evidence for a role of NTS2 receptors in the modulation of tonic pain sensitivity” (Molecular Pain, 2009)
“And” between values parts separate entries of the source, which are not always exact repeats. Equal entries are not always repeated. Where two headings read alike, the source gives them in different places. Non-standard residues stand in square brackets, D forms with d. Residues, ends and D or L forms follow the SMILES beside them. Ala(indol-4-yl) = N[C@@H](Cc1cccc2[nH]ccc12)C(=O)O; NMeR = CN[C@@H](CCCNC(=N)N)C(=O)O; Tle = CC(C)(C)[C@H](N)C(=O)O

Tests used:
rNTS1 = target: T1, rNTS1 (Rattus norvegicus, UniProt P20789); experiment: Competition binding of [3H]-NT to HEK293 cell membranes expressing rNTS1
T1 construct: expressed in transfected cells; membrane homogenates
Description: (§1) Cells were fed every 2 days with 20 ml of medium. 70–80% confluent HEK 293 cells were washed twice with phosphate-buffered saline solution, scraped into 50 mM Tris-HCl (pH 7.4) buffer containing 1 mM EDTA and 250 mM sucrose and centrifuged at 15,000 g for 12 min at 4°C. Pellets were then re-suspended in hypotonic TE buffer (50 mM Tris-HCl (pH 7.4) buffer containing 1 mM EDTA) and membrane homogenates were recovered by centrifugation for 30 min at 4°C. The final protein concentration was determined with the use of the BCA assay kit (Pierce Biotechnology Inc, Rockford, IL).
(§2) Binding was terminated by two successive additions of 3 ml of ice-cold buffer and filtering under vacuum through GF/B filters presoaked in binding buffer containing 0.2% polyethyleneimine (48-well Brandel Harvester). Filters were placed in scintillation vials containing 5 ml scintillation liquid (Ecolite) and then counted in a beta counter.

rNTS2 = target: T2, rNTS2 (Rattus norvegicus, UniProt Q63384); experiment: Competition binding of [3H]-NT to HEK293 cell membranes expressing rNTS2
T2 construct: expressed in transfected cells; membrane homogenates
T2 sequence (Q63384 1-416): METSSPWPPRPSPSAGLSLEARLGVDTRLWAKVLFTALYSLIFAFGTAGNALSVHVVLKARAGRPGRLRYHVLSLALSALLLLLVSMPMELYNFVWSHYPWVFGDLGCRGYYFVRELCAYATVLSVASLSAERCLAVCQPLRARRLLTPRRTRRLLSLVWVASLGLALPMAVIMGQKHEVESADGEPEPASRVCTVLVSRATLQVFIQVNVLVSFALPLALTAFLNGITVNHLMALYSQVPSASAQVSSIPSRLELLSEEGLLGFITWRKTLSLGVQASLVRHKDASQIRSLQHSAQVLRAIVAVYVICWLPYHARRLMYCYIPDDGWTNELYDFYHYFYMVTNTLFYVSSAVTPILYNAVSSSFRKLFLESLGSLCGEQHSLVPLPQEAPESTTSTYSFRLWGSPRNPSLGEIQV
Description: as §1, §2

c-fos = experiment: Formalin-evoked c-fos-like immunoreactivity in lumbar spinal cord (L4-L5); assay type: in vivo; details: rat
Description: At 45 min following formalin injection, rats were deeply anesthetized and perfused intraaortically with ice-cold 4% paraformaldehyde (Fisher Scientific, Montreal, QC, Canada) in 0.1 M PB, pH 7.4. The spinal cord was isolated and then cryoprotected overnight at 4°C in 30% sucrose in phosphate-buffered saline (PBS). Prior to tissue sectioning, an incision was made in the ventral horn of the contralateral side to allow spatial positioning of the spinal cord for further analysis. Transverse frozen sections (35-μm-thick) were then cut from the lumbar segment (L4-L5) of the spinal cord with a sliding microtome and processed by a free-floating slice immunohistochemistry procedure. After elimination of endogenous peroxidase activity with 0.3% hydrogen peroxide in PBS for 1 h, the tissue sections were rinsed three times in PBS and incubated for 1 h at RT in a blocking solution of 3% normal goat serum (NGS) and 0.3% Triton X-100 in PBS. After washing, free-floating sections were incubated overnight at RT with the rabbit anti-c-fos polyclonal antibody diluted 1:1000 in PBS (sc-52, Santa Cruz Biotechnology, Santa Cruz, CA, USA), containing 1% NGS and 0.3% Triton X-100. The tissue was then washed three times in PBS and transferred to a goat anti-rabbit biotinylated secondary IgG complex (1:200 in 1% NGS and 0.3% Triton X-100 in PBS; Vector, Burlingame, CA, USA) for 1 h at RT followed by exposing to avidin-biotin horseradish peroxydase complex (1:100; Vectastain ABC-Elite kit, Vector Laboratories, Burlington, ON, Canada) for 1 h at RT. After the final wash with PBS, the chromagen was developed using nickel intensified 3,3'-diaminobenzidine (DAB, 0.01%) and 0.3% H2O2. Finally, the sections were thoroughly rinsed with PBS, mounted onto slides, dehydrated in a series of graded alcohols, defatted in xylene, and placed on coverslips.
Sections were visually scanned and photographed using a bright-field microscope (Leica DM4000B; Leica Microsystems, Toronto, Canada). The individual sections were printed and overlaid with an acetate sheet on which the distribution of c-fos immunoreactive neurons was then plotted. […] For the quantification of c-fos labeled neurons, each section of the spinal cord was divided into four regions of interest: the superficial laminae (laminae I, IIo and IIi), the nucleus proprius (laminae III and IV), the neck of the dorsal horn (laminae V and VI) and the deep lamina X according to the cytoarchitectonic organization of the spinal cord. The number of c-fos immunoreactive neurons in the four defined regions was determined by averaging the counts made in 10–15 sections and expressed as mean ± S.E.M. of these values for all the rats in that treatment group for statistical analysis of the different experimental conditions. […] A Dunnett's t-test was applied to assess differences between the drug and vehicle groups. A value of P < 0.05 was considered statistically significant.

[1] = test system: formalin-induced nociceptive behaviors; experiment: Formalin test, cumulative time in stereotypic behaviors (lifting; flinching/licking/biting); assay type: in vivo; details: rat
Description: Experiments were performed with adult male Sprague-Dawley rats (250–300 g; Charles River, St-Constant, QC, Canada) kept on a 12 h light/dark cycle and allowed ad libitum access to food and water. Animals were individually acclimatized to Plexiglas enclosures for 3 consecutive days prior to testing. The formalin test was always performed by […] in a quiet room and between 08.00 AM and 12.00 PM to reduce any variation related to circadian rhythm. The experimental procedures in this study were approved by the Animal Care Committee of the University of Sherbrooke and were in accordance with policies and directives of the Canadian Council on Animal Care.
Behavioral experiments aimed at establishing the effects of NT analogs and NTS2-selective agonists on formalin-induced nocifensive behaviors. To this end, rats were lightly anesthetized with isoflurane (Abbott Laboratories, Montreal, QC, Canada) and injected intrathecally, at the L5-L6 intervertebral space, with either NT (6 μg/kg), NT69L (5 μg/kg), JMV-431 (5 to 60 μg/kg), or levocabastine (0.5 and 5 μg/kg) diluted in 30 μl of physiological saline (0.9% NaCl), 5 min before formalin administration. Control animals received physiological saline.
Antinociception was assessed using the formalin test as a model of persistent pain. […]
Following this, the rats were placed in clear plastic chambers (30 × 30 × 30 cm) positioned over a mirror angled at 45°, in order to allow an unobstructed view of the paws, and their behaviors were recorded for the next 60 min. […] Nocifensive behaviors were assessed using a weighed score as described previously. […] The weighted nociceptive score, ranging from 0 to 3, is calculated by multiplying the time spent in each category by its assigned weight category, summing these products and dividing by the total time for each 3 min block of time. The total area under the curve (A.U.C.) for the inflammatory phase (phase 2) was calculated between 21 to 60 min for each animal. Phase 2 was further subdivided in early (21–39 min) and late (40–60) phases and analyzed as separate events. Formalin-induced pain related behavior may also be quantified by monitoring the number and the duration of episodes of different behavioral endpoints. The cumulative time spent in both lifting (state 2) and flinching/licking/biting (state 3), reflecting behavioral reactions integrated at different CNS levels, were also determined during the inflammatory phase (21 to 60 min following formalin).
Data are presented as means ± standard errors of the mean (S.E.M.). […] Nociceptive scores over the 3 min time blocks were analyzed using a two-way analysis of variance for repeated measures, with comparisons between experimental groups and the control group at each time interval using Bonferroni's post hoc t-test. […]

[2] = test system: formalin-induced nociceptive behaviors; experiment: Formalin test, weighted pain score (A.U.C.) after intrathecal pretreatment; assay type: in vivo; details: rat, i.t. 5 μg/kg; for reduction of pain behaviors in the tonic phase (phase 2, 21-60 min, A.U.C.) vs vehicle: 5 min before formalin
Description: Experiments were performed with adult male Sprague-Dawley rats (250–300 g; Charles River, St-Constant, QC, Canada) kept on a 12 h light/dark cycle and allowed ad libitum access to food and water. Animals were individually acclimatized to Plexiglas enclosures for 3 consecutive days prior to testing. The formalin test was always performed by three different experimenters in a quiet room and between 08.00 AM and 12.00 PM to reduce any variation related to circadian rhythm.
Antinociception was assessed using the formalin test as a model of persistent pain. For this purpose, rats were placed for a 60-min habituation period in the experimentation room. Thereafter, rats received a 50 μl subcutaneous injection of diluted 2% formaldehyde (i.e. 5% formalin, Fisher Scientific, Montreal, QC, Canada) into the plantar surface of the right hind paw.
Following this, the rats were placed in clear plastic chambers (30 × 30 × 30 cm) positioned over a mirror angled at 45°, in order to allow an unobstructed view of the paws, and their behaviors were recorded for the next 60 min. […] Nocifensive behaviors were assessed using a weighed score as described previously [43, 44]. […] The weighted nociceptive score, ranging from 0 to 3, is calculated by multiplying the time spent in each category by its assigned weight category, summing these products and dividing by the total time for each 3 min block of time. The total area under the curve (A.U.C.) for the inflammatory phase (phase 2) was calculated between 21 to 60 min for each animal. Phase 2 was further subdivided in early (21–39 min) and late (40–60) phases and analyzed as separate events [45]. […] The cumulative time spent in both lifting (state 2) and flinching/licking/biting (state 3), reflecting behavioral reactions integrated at different CNS levels, were also determined during the inflammatory phase (21 to 60 min following formalin) [42].
Data are presented as means ± standard errors of the mean (S.E.M.). All calculations and statistical analysis were performed using Prism 4.0 and Instat 3.05 (Graph Pad Software, San Diego, CA, USA). Nociceptive scores over the 3 min time blocks were analyzed using a two-way analysis of variance for repeated measures, with comparisons between experimental groups and the control group at each time interval using Bonferroni's post hoc t-test. A one-way ANOVA followed by Dunnett's post hoc t-test was used to determine the significance of differences in the A.U.C. and in the time spent in states 2 and 3. A difference in responses between groups was considered significant with P values; * P < 0.05 and ** P < 0.01.

[3] = i.t. 5 μg/kg, 45 min after formalin

T1 sequence (P20789 whole entry): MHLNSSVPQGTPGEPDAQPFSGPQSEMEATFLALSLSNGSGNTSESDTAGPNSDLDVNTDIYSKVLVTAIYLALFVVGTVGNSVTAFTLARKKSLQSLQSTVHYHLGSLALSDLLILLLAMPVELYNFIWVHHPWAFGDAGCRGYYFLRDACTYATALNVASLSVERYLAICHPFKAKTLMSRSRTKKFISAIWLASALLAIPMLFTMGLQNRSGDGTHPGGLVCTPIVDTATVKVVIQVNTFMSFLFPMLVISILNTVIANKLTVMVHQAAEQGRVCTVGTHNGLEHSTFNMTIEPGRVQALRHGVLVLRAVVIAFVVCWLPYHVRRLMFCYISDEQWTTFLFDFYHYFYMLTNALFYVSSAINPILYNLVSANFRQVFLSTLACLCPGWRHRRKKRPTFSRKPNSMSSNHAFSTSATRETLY

Row | IC50 (rNTS1; read-out: IC50 rNTS1) | IC50 (rNTS2; inhibition of 2 nM [3H]-NT binding, HEK293 cell membranes expressing rat NTS2, read-out: IC50 rNTS2) | Compound | IC50 (rNTS1) | IC50 (rNTS2; IC50 rNTS2) | reduction of contralateral c-fos immunoreactivity, lamina X (c-fos; [3]) | reduction of contralateral c-fos immunoreactivity, laminae I-II (c-fos; [3]) | reduction of contralateral c-fos immunoreactivity, laminae III-IV (c-fos; [3]) | reduction of contralateral c-fos immunoreactivity, laminae V-VI (c-fos; [3]) | reduction of number of c-fos-LI neurons, ipsilateral laminae I-II (c-fos; [3]) | reduction of number of c-fos-LI neurons, ipsilateral laminae III-IV (c-fos; [3]) | reduction of number of c-fos-LI neurons, ipsilateral laminae V-VI (c-fos; [3]) | reduction of number of c-fos-LI neurons, ipsilateral laminae X (c-fos; [3]) | effect on formalin-evoked licking/shaking/biting behaviors, phase 2 ([1]; i.t., all doses tested) | inhibition of cumulative time spent in lifting, phase 2 (21-60 min) ([1]; i.t., maximum reached over the doses tested (JMV-431 5-60 μg/kg, levocabastine 0.5-5 μg/kg)) | decrease in A.U.C. in early phase 2 (21-39 min) [2] | decrease in A.U.C. in late phase 2 (40-60 min) [2] | reduction of pain behaviors in the tonic phase (phase 2, 21-60 min, A.U.C.) vs vehicle [2] | effect on spinal nociceptive neuronal responses (c-fos) induced by formalin (c-fos; data not shown) | reduction of lifting time during the tonic phase ([1]; i.t. NT69L 5 μg/kg) | attenuation of flinching, licking and biting responses (maximum antagonism) ([1]; i.t. NT69L 5 μg/kg, tonic phase)
1 |  |  | CC[C@H](C)[C@H](NC[C@H](Cc1ccc(O)cc1)NC(=O)[C@@H]1CCCN1C(=O)[C@H](CCCNC(=N)N)NC(=O)[C@H](CCCNC(=N)N)NC(=O)OC(C)(C)C)C(=O)N[C@@H](CC(C)C)C(=O)O [JMV-431, Boc-Arg-ArgPro-Tyrø(CH2NH)-Ile-Leu-OH] | 4.74 ± 0.135 µM | 19 ± 3.2 nM |  |  |  |  |  |  |  |  |  |  |  |  |  |  |  | 
2 | > 10 µM | 3 nM and 2.7 nM | C[C@@H]1CN([C@H]2CC[C@](C#N)(c3ccc(F)cc3)CC2)CC[C@]1(C(=O)O)c1ccccc1 [Levocabastine, levocabastine] |  |  | 98 ± 1% | 74 ± 7% | 72 ± 7% | 77 ± 5% | 26 ± 7% | 60 ± 5% | 53 ± 3% | 56 ± 8% | do not reverse | 73 ± 5% | no effect | 48 ± 16% | 29 ± 5% |  |  | 
3 |  |  | CN[C@@H](CCCNC(=N)N)C(=O)N[C@@H](CCCCN)C(=O)N1CCC[C@H]1C(=O)N[C@@H](Cc1cccc2[nH]ccc12)C(=O)N[C@H](C(=O)N[C@@H](CC(C)C)C(=O)O)C(C)(C)C [NT69L, N-methyl-Arg-Lys-Pro-L-neo-Trp-tert-Leu-Leu-OH] (H-[NMeR]KP[Ala(indol-4-yl)][Tle]L-OH; N-terminus assumed) | 0.0022 ± 0.0005 µM | 3.7 ± 0.4 nM |  |  |  |  |  |  |  |  |  |  | 70 ± 13% | 48% ± 19 | 59 ± 13% | attenuated | 74 ± 13% | 70 ± 15%
